How the values were obtained:
Settings in all cases: 72 h
Caco-2 [1] = assay: cell viability relative to DMSO; higher = less toxic
Calu-3 [2] = assay: as above
HepG2 [3] = assay: as above
U2OS [4] = assay: as above
Vero E6 [5] = assay: as above
Caco-2 [6] = assay: relative viability EC50 (midpoint between 100% and the lowest measured viability); higher = less toxic
Calu-3 [7] = assay: as above
HepG2 [8] = assay: as above
U2OS [9] = assay: as above
Vero E6 [10] = assay: as above
Caco-2 [11] = assay: drug sensitivity score (DSS) for viability; higher = more toxic; extreme values may be limits of the assay
Calu-3 [12] = assay: as above
HepG2 [13] = assay: as above
U2OS [14] = assay: as above
Vero E6 [15] = assay: as above

Row | Structure (SMILES) | cell viability (Caco-2 [1]; 1 nM) | cell viability (Caco-2 [1]; 10 nM) | cell viability (Caco-2 [1]; 100 nM) | cell viability (Caco-2 [1]; 1000 nM) | cell viability (Caco-2 [1]; 10000 nM) | cell viability (Calu-3 [2]; 1 nM) | cell viability (Calu-3 [2]; 10 nM) | cell viability (Calu-3 [2]; 100 nM) | cell viability (Calu-3 [2]; 1000 nM) | cell viability (Calu-3 [2]; 10000 nM) | cell viability (HepG2 [3]; 1 nM) | cell viability (HepG2 [3]; 10 nM) | cell viability (HepG2 [3]; 100 nM) | cell viability (HepG2 [3]; 1000 nM) | cell viability (HepG2 [3]; 10000 nM) | cell viability (U2OS [4]; 1 nM) | cell viability (U2OS [4]; 10 nM) | cell viability (U2OS [4]; 100 nM) | cell viability (U2OS [4]; 1000 nM) | cell viability (U2OS [4]; 10000 nM) | cell viability (Vero E6 [5]; 1 nM) | cell viability (Vero E6 [5]; 10 nM) | cell viability (Vero E6 [5]; 100 nM) | cell viability (Vero E6 [5]; 1000 nM) | cell viability (Vero E6 [5]; 10000 nM) | relative viability EC50 (Caco-2 [6]) | relative viability EC50 (Calu-3 [7]) | relative viability EC50 (HepG2 [8]) | relative viability EC50 (U2OS [9]) | relative viability EC50 (Vero E6 [10]) | drug sensitivity score (Caco-2 [11]) | drug sensitivity score (Calu-3 [12]) | drug sensitivity score (HepG2 [13]) | drug sensitivity score (U2OS [14]) | drug sensitivity score (Vero E6 [15])
1 | O=C(O)c1ccccc1-c1ccc(C(F)(F)F)cc1 [xenalipin] | 97.1% | 92.8% | 99% | 92.1% | 97.6% | 101% | 101% | 111% | 98.6% | 107% | 89.1% | 90.8% | 94.6% | 97% | 109% | 100% | 95.8% | 103% | 98% | 105% | 98.6% | 104% | 92.2% | 98.6% | 98.2% | > 10 µM | > 10 µM | > 10 µM | > 10 µM | > 10 µM | 0 | 0 | 0 | 0 | 0
2 | OC(CCCN1CCN(c2ncc(F)cn2)CC1)c1ccc(F)cc1 (stereo not given) | 98.4% | 99.1% | 101% | 94.2% | 95.7% | 107% | 99.7% | 102% | 104% | 94.7% | 95.8% | 100% | 98.3% | 96% | 97.5% |  |  |  |  |  | 101% | 98.1% | 94.9% | 99% | 95.4% | > 10 µM | > 10 µM | > 10 µM |  | > 10 µM | 0 | 0 | 0 |  | 0
3 | COc1cccc(Nc2ncnn3ccc(CN4CC[C@@H](N)[C@H](O)C4)c23)c1 | 89.2% | 91% | 81.2% | 76.1% | 48.6% | 103% | 94.4% | 46.5% | 23.7% | 9.1% | 105% | 102% | 102% | 99% | 87.9% | 96.2% | 96.5% | 93.2% | 92.6% | 55.7% | 100% | 89.4% | 65.7% | 51.4% | 14.8% | 0.335 µM | 0.0837 µM | > 10 µM |  | 0.292 µM | 7.5 | 21.9 | 0.1 | 3.5 | 14.4
4 | CCOC(=O)c1ccc(OC(=O)CCCCCNC(=N)N)cc1 [gabexate] | 94.2% | 95.6% | 99.2% | 95.2% | 89.4% | 88.1% | 95.9% | 84.8% | 86.9% | 87.1% | 97.1% | 115% | 96.9% | 95.6% | 103% |  |  |  |  |  | 101% | 104% | 98% | 98.4% | 100% | > 10 µM | > 10 µM | > 10 µM |  | > 10 µM | 0 | 1.4 | 0 |  | 0
5 | O=c1cc[nH]c(=S)[nH]1 [2-thiouracil] | 111% | 85.8% | 97.1% | 99% | 102% | 102% | 110% | 95.2% | 95.7% | 100% |  |  |  |  |  | 98.5% | 96.4% | 99.7% | 97.5% | 98.6% | 108% | 98.6% | 99.5% | 108% | 93.8% | > 10 µM | > 10 µM |  | > 10 µM | > 10 µM | 0 | 0 |  | 0 | 0
6 | Cc1cc(C)c(S(=O)(=O)n2cc(C)cc2C)c(C)c1 [HJC-0350] | 95.5% | 98.2% | 93.6% | 96.6% | 93.2% | 93.7% | 99.4% | 92.9% | 103% | 96.5% |  |  |  |  |  | 97.4% | 98.2% | 102% | 106% | 93.4% | 97.5% | 99.5% | 98.6% | 95.5% | 96.2% | > 10 µM | > 10 µM |  | > 10 µM | > 10 µM | 0 | 0 |  | 0 | 0
7 | CC1=C(/C=C/C(=C/C=C/C(C)=C/C(=O)O)c2ccc(C)cc2)C(C)(C)CCC1 | 90.9% | 94.2% | 95.4% | 98.4% | 97.1% | 94.6% | 106% | 112% | 102% | 99.3% | 106% | 103% | 98.2% | 94.2% | 98.4% |  |  |  |  |  | 99.1% | 95.2% | 101% | 97.2% | 108% | > 10 µM | > 10 µM | > 10 µM |  | > 10 µM | 0 | 0 | 0 |  | 0
8 | CC(C)(C)NCC(O)c1ccccc1Cl (stereo not given) [tulobuterol] | 93.7% | 89.8% | 88.1% | 79.8% | 95.6% | 94.6% | 91.1% | 99.4% | 111% | 88.4% |  |  |  |  |  | 99.7% | 95.5% | 102% | 101% | 98.6% | 96.9% | 98.2% | 99.7% | 96.2% | 87% | > 10 µM | > 10 µM |  | > 10 µM | > 10 µM | 0 | 0 |  | 0 | 0.3
9 | Cc1ccnc2c1NC(=O)c1cccnc1N2C1CC1 [nevirapine] | 87.3% | 86.8% | 101% | 97% | 100% | 104% | 90.6% | 109% | 96.8% | 87.8% |  |  |  |  |  | 97.2% | 101% | 101% | 101% | 98.9% | 94.3% | 107% | 96.5% | 104% | 108% | > 10 µM | > 10 µM |  | > 10 µM | > 10 µM | 0 | 0.2 |  | 0 | 0
